We go through 29 compounds from patent US10758534B2 (Vertex Pharmaceuticals Incorporated, priority 2014, dated 2020).

The assay concerns the target T1, F508del (Homo sapiens, UniProt P13569, DEL508-508).
T1 construct: expressed in transfected cells
The assay can be described thus: Protocol 2: FRET membrane potential optical assay (VIPR), identification of correction compounds. Format: cell-based. In outline: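 Correction of the F508del trafficking defect is scored as forskolin (10 μM)/genistein (20 μM)-stimulated Cl^− efflux in NIH3T3 mouse fibroblasts after a 16 hr, 37° C. compound exposure. Depolarization was followed optically using voltage-sensing FRET dyes.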

[1] abbreviates: Table 3, compounds of Table 1 as modulators of CFTR activity, protocol not stated.
Where [2] appears, read: F508del CFTR modulator activity, compounds of Table 1, read-out: EC30.

One may read the EC30 as the concentration needed for an effect of 30%.

Where two headings read alike, the source gives them in different places. Where only a bound is given, the exact number is not on record here.

T1 sequence (P13569 with tags, fused parts or gaps DEL508-508): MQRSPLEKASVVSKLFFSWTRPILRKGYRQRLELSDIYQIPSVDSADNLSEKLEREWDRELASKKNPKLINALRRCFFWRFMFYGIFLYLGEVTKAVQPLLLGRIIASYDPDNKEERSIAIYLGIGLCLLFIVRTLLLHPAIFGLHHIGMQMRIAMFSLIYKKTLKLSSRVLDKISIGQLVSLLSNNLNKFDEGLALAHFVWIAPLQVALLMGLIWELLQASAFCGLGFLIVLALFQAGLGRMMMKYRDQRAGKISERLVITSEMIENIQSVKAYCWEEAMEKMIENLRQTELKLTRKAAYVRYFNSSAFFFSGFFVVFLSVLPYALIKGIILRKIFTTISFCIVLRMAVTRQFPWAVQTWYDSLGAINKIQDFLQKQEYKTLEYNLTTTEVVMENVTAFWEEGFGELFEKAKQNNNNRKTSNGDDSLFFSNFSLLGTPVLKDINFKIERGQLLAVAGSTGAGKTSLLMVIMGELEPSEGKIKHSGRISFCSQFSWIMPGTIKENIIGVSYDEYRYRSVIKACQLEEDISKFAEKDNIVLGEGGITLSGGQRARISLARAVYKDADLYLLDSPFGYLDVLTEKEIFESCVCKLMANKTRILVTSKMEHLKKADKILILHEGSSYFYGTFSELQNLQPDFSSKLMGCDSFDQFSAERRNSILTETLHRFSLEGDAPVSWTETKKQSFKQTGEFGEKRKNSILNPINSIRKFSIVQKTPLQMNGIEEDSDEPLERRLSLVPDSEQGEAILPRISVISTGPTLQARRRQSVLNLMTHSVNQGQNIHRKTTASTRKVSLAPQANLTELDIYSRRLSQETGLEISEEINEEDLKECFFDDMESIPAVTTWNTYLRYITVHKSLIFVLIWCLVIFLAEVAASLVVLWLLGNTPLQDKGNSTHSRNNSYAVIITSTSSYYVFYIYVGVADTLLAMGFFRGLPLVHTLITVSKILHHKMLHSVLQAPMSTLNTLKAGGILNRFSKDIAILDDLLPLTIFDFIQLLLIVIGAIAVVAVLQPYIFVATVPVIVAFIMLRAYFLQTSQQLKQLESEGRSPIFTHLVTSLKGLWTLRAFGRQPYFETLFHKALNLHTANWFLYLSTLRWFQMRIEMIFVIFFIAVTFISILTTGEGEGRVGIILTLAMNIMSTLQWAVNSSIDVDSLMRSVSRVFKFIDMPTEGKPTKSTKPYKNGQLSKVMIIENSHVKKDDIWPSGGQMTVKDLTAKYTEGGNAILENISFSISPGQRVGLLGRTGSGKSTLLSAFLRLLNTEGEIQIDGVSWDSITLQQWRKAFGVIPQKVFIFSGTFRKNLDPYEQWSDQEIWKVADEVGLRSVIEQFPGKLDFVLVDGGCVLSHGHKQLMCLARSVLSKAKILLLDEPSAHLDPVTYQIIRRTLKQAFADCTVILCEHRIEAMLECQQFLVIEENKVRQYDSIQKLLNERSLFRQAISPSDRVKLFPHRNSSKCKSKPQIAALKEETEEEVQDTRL

In the case of `CC(C)(C)c1ccc(C(=O)NS(=O)(=O)c2cccc(N)c2)c(-c2ccc(C(F)(F)F)cc2)n1` [Compound 129, N-(3-aminophenyl)sulfonyl-6-tert-butyl-2-[4-(trifluoromethyl)phenyl]pyridine-3-carboxamide], under setting [1], the EC30 entry was “++ (“++” means between 3 uM and 10 uM)”. For `C[C@@H]1CN(c2nc(O[C@H]3CCOC3)c(F)cc2C(=O)NS(=O)(=O)c2cccc(N)n2)C(C)(C)C1` [Compound 2056, N-[(6-amino-2-pyridyl)sulfonyl]-5-fluoro-6-[(3S)-tetrahydrofuran-3-yl]oxy-2-[(4S)-2,2,4-trimethylpyrrolidin-1-yl]pyridine-3-carboxamide], the EC30 under setting [2] lay within 3 to 10 µM. Still for that read-out and setting: the result for `CCOC(=O)C1CCN(c2cccc(S(=O)(=O)NC(=O)c3cccnc3N3CC(C)CC3(C)C)n2)CC1` (centres unmarked) [Compound 2488, ethyl 1-[6-[[2-(2,2,4-trimethylpyrrolidin-1-yl)pyridine-3-carbonyl]sulfamoyl]-2-pyridyl]piperidine-4-carboxylate] reads less than 3 µM. Same read-out and setting: next, `CC(C)n1cc(-c2ccc(C(=O)NS(=O)(=O)c3cccnc3N)c(N3C[C@@H](C)CC3(C)C)n2)cn1` [Compound 2290, N-[(2-amino-3-pyridyl)sulfonyl]-6-(1-isopropylpyrazol-4-yl)-2-[(4S)-2,2,4-trimethylpyrrolidin-1-yl]pyridine-3-carboxamide]: 3 to 10 µM; `Cc1cc(C)cc(-c2ccc(C(=O)NS(=O)(=O)c3ccc[nH]c3=O)c(N3C[C@@H](C)CC3(C)C)n2)c1` [Compound 2626, 6-(3,5-dimethylphenyl)-N-[(2-oxo-1H-pyridin-3-yl)sulfonyl]-2-[(4S)-2,2,4-trimethylpyrrolidin-1-yl]pyridine-3-carboxamide]: less than 3 µM.

Take `CC(C)Oc1ccc(-c2ccc(C(=O)NS(=O)(=O)c3ccn[nH]3)c(N3CCC[C@H](c4ccccc4)C3)n2)cn1` [Compound 741, 6-(6-isopropoxy-3-pyridyl)-2-[(3R)-3-phenyl-1-piperidyl]-N-(1H-pyrazol-5-ylsulfonyl)pyridine-3-carboxamide]: the EC30 result under setting [1] is “+++ (“+++” means <3 uM)”. The same measure, in the same setting: the result for `Cc1ccc(Oc2nc(-c3cc(F)cc(OC(C)C)c3)ccc2C(=O)NS(=O)(=O)c2nccnc2N)c(C)c1` [Compound 559, N-(3-aminopyrazin-2-yl)sulfonyl-2-(2,4-dimethylphenoxy)-6-(3-fluoro-5-isopropoxy-phenyl)pyridine-3-carboxamide] reads “+++ (“+++” means <3 uM)”. On the same count and under the same terms, next, `CC1CN(c2nc(-c3ccc(Cl)c(OC(C)C)c3)ccc2C(=O)NS(=O)(=O)c2cccc(N)n2)C(C)(C)C1` (centres unmarked) [Compound 504, N-[(6-amino-2-pyridyl)sulfonyl]-6-(4-chloro-3-isopropoxy-phenyl)-2-(2,2,4-trimethylpyrrolidin-1-yl)pyridine-3-carboxamide]: “+++ (“+++” means <3 uM)”. `CC1CN(c2nc(OC(C)C)c(F)cc2C(=O)NS(=O)(=O)c2cccc(N)n2)C(C)(C)C1` (centres unmarked) [Compound 2230, N-[(6-amino-2-pyridyl)sulfonyl]-5-fluoro-6-isopropoxy-2-(2,2,4-trimethylpyrrolidin-1-yl)pyridine-3-carboxamide]: under setting [2], the concentration for an effect of 30% (EC30) is less than 3 µM.

As for `Cc1cc(C)c(Oc2nc(C(F)(F)F)ccc2C(=O)NS(=O)(=O)c2cccc(N)c2)c(C)c1` [Compound 96, N-(3-aminophenyl)sulfonyl-6-(trifluoromethyl)-2-(2,4,6-trimethylphenoxy)pyridine-3-carboxamide], the EC30 result under setting [1] is given as “+++ (“+++” means <3 uM)”. Same read-out and setting: next, `Cc1cc(C)c(Oc2nc3ccccc3cc2C(=O)NS(=O)(=O)c2ccccc2)c(C)c1` [Compound 215, N-(benzenesulfonyl)-2-(2,4,6-trimethylphenoxy)quinoline-3-carboxamide]: “+++ (“+++” means <3 uM)”.

`CC(C)COc1cc(F)cc(-c2ccc(C(=O)NS(=O)(=O)c3cccc(N)n3)c(N3CCC(Cc4ccccc4)C3)n2)c1` (centres unmarked) [Compound 473, N-[(6-amino-2-pyridyl)sulfonyl]-2-(3-benzylpyrrolidin-1-yl)-6-(3-fluoro-5-isobutoxy-phenyl)pyridine-3-carboxamide]: under setting [1], the 30% effect concentration (EC30) result is “+++ (“+++” means <3 uM)”. On to `Cc1cccc(C)c1Cn1c(C(=O)NS(=O)(=O)c2cccc(N)c2)cc2ccccc21` [Compound 331, N-(3-aminophenyl)sulfonyl-1-[(2,6-dimethylphenyl)methyl]indole-2-carboxamide], for which the EC30 result under setting [1] was “+++ (“+++” means <3 uM)”.

On to `CC1CN(c2ncccc2C(=O)NS(=O)(=O)c2cccc(OC(C)c3ccccc3F)n2)C(C)(C)C1` (centres unmarked) [Compound 2408, N—[[6-[1-(2-fluorophenyl)ethoxy]-2-pyridyl]sulfonyl]-2-(2,2,4-trimethylpyrrolidin-1-yl)pyridine-3-carboxamide], for which the 30% effect concentration (EC30) under setting [2] was less than 3 µM. With `Cc1cc(C)c(Oc2nc(-c3cccc4c3OCO4)ccc2C(=O)NS(=O)(=O)c2ccc[nH]c2=O)c(C)c1` [Compound 525, 6-(1,3-benzodioxol-4-yl)-N-[(2-oxo-1H-pyridin-3-yl)sulfonyl]-2-(2,4,6-trimethylphenoxy)pyridine-3-carboxamide], the EC30 entry under setting [1] was “++ (“++” means between 3 uM and 10 uM)”. The same measure, in the same setting: the result for `Cn1ccc2c(Cn3nc(C(C)(C)C)cc3C(=O)NS(=O)(=O)c3ccccc3)cccc21` [Compound 245, N-(benzenesulfonyl)-5-tert-butyl-2-[(1-methylindol-4-yl)methyl]pyrazole-3-carboxamide] reads “++ (“++” means between 3 uM and 10 uM)”; that for `Cc1ccc2c(c1)cc(C(=O)NS(=O)(=O)c1cccc(N)n1)n2Cc1c(C)cc(C#N)cc1C` [Compound 67, N-[(6-amino-2-pyridyl)sulfonyl]-1-[(4-cyano-2,6-dimethyl-phenyl)methyl]-5-methyl-indole-2-carboxamide], “++ (“++” means between 3 uM and 10 uM)”. For `CC1CN(c2ncccc2C(=O)NS(=O)(=O)c2cccc(OC3CCC4CCCCC4C3)n2)C(C)(C)C1` (centres unmarked) [Compound 2211, N-[(6-decalin-2-yloxy-2-pyridyl)sulfonyl]-2-(2,2,4-trimethylpyrrolidin-1-yl)pyridine-3-carboxamide], the EC30 under setting [2] is less than 3 µM. Turning to `Cc1cc(C)c(Oc2nc(-c3cccnc3OCC(F)(F)F)ccc2C(=O)NS(=O)(=O)c2cccc(N)n2)c(C)c1` [Compound 697, N-[(6-amino-2-pyridyl)sulfonyl]-6-[2-(2,2,2-trifluoroethoxy)-3-pyridyl]-2-(2,4,6-trimethylphenoxy)pyridine-3-carboxamide], the EC30 entry under setting [1] is “+++ (“+++” means <3 uM)”. For the compound `CC1CN(c2ncccc2C(=O)NS(=O)(=O)c2cccc(Nc3ccccn3)n2)C(C)(C)C1` (centres unmarked) [Compound 2068, N—[[6-(2-pyridylamino)-2-pyridyl]sulfonyl]-2-(2,2,4-trimethylpyrrolidin-1-yl)pyridine-3-carboxamide], the EC30 under setting [2] is less than 3 µM. The same measure, in the same setting: the result for `CC1CCN(c2cccc(S(=O)(=O)NC(=O)c3cccnc3N3CC(C)CC3(C)C)n2)CC1` (centres unmarked) [Compound 2330, N—[[6-(4-methyl-1-piperidyl)-2-pyridyl]sulfonyl]-2-(2,2,4-trimethylpyrrolidin-1-yl)pyridine-3-carboxamide] reads less than 3 µM. For the compound `Cc1cc(C)c(Cn2nc(C(C)(C)C)cc2C(=O)NS(=O)(=O)c2cccc(Cl)c2)c(C)c1` [Compound 472, 5-tert-butyl-N-(3-chlorophenyl)sulfonyl-2-[(2,4,6-trimethylphenyl)methyl]pyrazole-3-carboxamide], the EC30 entry under setting [1] is “+ (“+” means greater than 10 uM)”. Regarding `CC(C)Cc1ccc(C(=O)NS(=O)(=O)c2ccc[nH]c2=O)c(N2C[C@@H](C)CC2(C)C)n1` [Compound 2467, 6-isobutyl-N-[(2-oxo-1H-pyridin-3-yl)sulfonyl]-2-[(4S)-2,2,4-trimethylpyrrolidin-1-yl]pyridine-3-carboxamide], under setting [2], the EC30 was less than 3 µM.

Consider `CC(C)COc1cc(F)cc(-c2ccc(C(=O)NS(=O)(=O)N3C[C@@H](O)[C@H](O)C3)c(N3C[C@@H](C)CC3(C)C)n2)c1` [Compound 2534, N-[(3R,4R)-3,4-dihydroxypyrrolidin-1-yl]sulfonyl-6-(3-fluoro-5-isobutoxy-phenyl)-2-[(4S)-2,2,4-trimethylpyrrolidin-1-yl]pyridine-3-carboxamide], for which the EC30 under setting [2] was less than 3 µM. Regarding `Cc1cc(C)c(CN2Cc3ccccc3[C@@H]2C(=O)NS(=O)(=O)c2cccc(N)c2)c(C)c1` [Compound 310, (1R)—N-(3-aminophenyl)sulfonyl-2-[(2,4,6-trimethylphenyl)methyl]isoindoline-1-carboxamide], under setting [1], the EC30 entry is listed as “+++ (“+++” means <3 uM)”. As for `CC(C)OC(=O)N1CC=C(c2cc(C(=O)NS(=O)(=O)c3cccc(N)n3)c(N3C[C@@H](C)CC3(C)C)nc2C(C)(C)C)CC1` [Compound 2027, isopropyl 4-[5-[(6-amino-2-pyridyl)sulfonylcarbamoyl]-2-tert-butyl-6-[(4S)-2,2,4-trimethylpyrrolidin-1-yl]-3-pyridyl]-3,6-dihydro-2H-pyridine-1-carboxylate], under setting [2], the EC30 is less than 3 µM. Still for that read-out and setting: next, `CNc1cccc(S(=O)(=O)NC(=O)c2cccnc2N2CC(C)CC2(C)C)n1` (centres unmarked) [Compound 2535, N—[[6-(methylamino)-2-pyridyl]sulfonyl]-2-(2,2,4-trimethylpyrrolidin-1-yl)pyridine-3-carboxamide]: 3 to 10 µM. For `CC1CN(c2ncccc2C(=O)NS(=O)(=O)c2cccc(Nc3cc(F)cc(F)c3)n2)C(C)(C)C1` (centres unmarked) [Compound 2282, N—[[6-(3,5-difluoroanilino)-2-pyridyl]sulfonyl]-2-(2,2,4-trimethylpyrrolidin-1-yl)pyridine-3-carboxamide], the EC30 under setting [2] was less than 3 µM. Consider `Cc1c(Cn2nc(C(C)(C)C)cc2C(=O)NS(=O)(=O)c2ccccc2)cccc1C(F)(F)F` [Compound 98, N-(benzenesulfonyl)-5-tert-butyl-2-[[2-methyl-3-(trifluoromethyl)phenyl]methyl]pyrazole-3-carboxamide], for which the EC30 result under setting [1] was “+++ (“+++” means <3 uM)”.
